These are literature values, as cited in patent US20070037797A1, “Method of reducing the risk of adverse cardiovascular (CV) events associated with the administration of pharmaceutical agents which favor CV events” (priority 2005, published 2007).

Where two headings read alike, the source gives them in different places.

The conditions of series [1]: Losartan 50 mg vs. captopril 50 mg three times daily, patients with heart failure.
For series [2] the following is noted: losartan vs. captopril.
The conditions of series [3]: use at high frequency or dose.
The conditions of series [4]: 10 mg dose.
For series [5] the following is noted: FDA determination.
For series [6] the following is noted: in vivo.
The conditions of series [7]: individuals with essential hypertension.
For series [8] the following is noted: in vivo. This is another data set of the same source.
For series [9] the following is noted: high-risk patients with diabetes mellitus, compared to placebo.
Series [10] has as its system COX-2 relative to COX-1.
For series [11] the following is noted: versus the non-selective NSAID naproxen.
For series [12] the following is noted: 25 mg/day of rofecoxib versus placebo.
Test in series [13]: not given
This is another data set of the same source.

Take `CCCCc1nc(Cl)c(CO)n1Cc1ccc(-c2ccccc2-c2nn[nH]n2)cc1` [Losartan]: the mortality result in series [1] is recorded as “significant reduction in mortality”. The clinical endpoints result in [2] was “no significant difference”.
With `CC(=O)Nc1ccc(O)cc1` [acetaminophen], in series [3], the “risk of adverse CV events” value was “significant increase”.
Regarding `CC(C)c1c(C(=O)Nc2ccccc2)c(-c2ccccc2)c(-c2ccc(F)cc2)n1CC[C@@H](O)C[C@@H](O)CC(=O)O` [atorvastatin], in series [4], the “reduction in LDL” value was 39%.
Regarding `Cc1ccc(-c2cc(C(F)(F)F)nn2-c2ccc(S(N)(=O)=O)cc2)cc1` [celecoxib], in series [5], the “risk of adverse CV events compared to placebo” value (shortened to “risk … compared to placebo”) is given as “increased risk of adverse CV events”. Besides, the “hazard for the composite endpoint of death from CV causes” value reads like this: (200 mg twice daily compared to placebo) 2.5; (400 mg twice daily compared to placebo) 3.4. Further, the “increase in adverse CV events” value (versus placebo after a mean duration of 33 months) is recorded as 2-3 fold.
In the case of `COc1ccc(OC(=O)N(CC(=O)O)Cc2ccc(OCCc3nc(-c4ccccc4)oc3C)cc2)cc1` [muraglitazar], in series [6], the “risk of myocardial infarct and stroke” value was “increases the risk of myocardial infarct and stroke”.
With `CCC(=O)NS(=O)(=O)c1ccc(-c2c(-c3ccccc3)noc2C)cc1` [parecoxib], the endothelial dysfunction result in [7] was “worsening”.
In the case of `O=C(c1ccc(OCCN2CCCCC2)cc1)c1c(-c2ccc(O)cc2)sc2cc(O)ccc12` [raloxifene], the risk of stroke entry in series [8] was “increases the risk of stroke”.
For the molecule `CCOC(=O)[C@H](CCc1ccccc1)N[C@@H](C)C(=O)N1[C@H](C(=O)O)C[C@@H]2CCC[C@@H]21` [ramipril], in series [9], the “relative risk reduction, combined primary outcome of myocardial infarction, stroke, and cardiovascular death” value is given as 25%.
On to `CS(=O)(=O)c1ccc(C2=C(c3ccccc3)C(=O)OC2)cc1` [rofecoxib], for which the “selectivity for COX-2 compared with celecoxib” value in series [10] is recorded as 10 times. Moreover, the “increase in the incidence of myocardial infarction” value in series [11] is recorded as “approximately two”. In series [12], the “increase in the incidence of serious thrombotic adverse events” value is given as “approximately two”. In [5], the “risk … compared to placebo” value was “increased risk of adverse CV events”.
For `Cc1onc(-c2ccccc2)c1-c1ccc(S(N)(=O)=O)cc1` [valdecoxib], the “risk … compared to placebo” value in series [5] is “increased risk of adverse CV events”.
As for `CCCCC(=O)N(Cc1ccc(-c2ccccc2-c2nnn[nH]2)cc1)[C@H](C(=O)O)C(C)C` [valsartan], the “survival and rates of non-fatal CV events” value in series [13] (patients with myocardial infarction) was “improved survival and reduced the rates of non-fatal CV events”. The “improving survival and reducing cardiovascular morbidity compared with captopril” value in series [13] (target dose of 160 mg twice daily) is on record as “as effective as the ACE inhibitor captopril”.
